Assay results as given in US11420958B2, “Aryl and heteroaryl substituted indole compounds” (BRISTOL-MYERS SQUIBB COMPANY, priority 2017, dated 2022).

Columns and labels:
Format in all cases: cell-based
human TLR7 = human TLR7 (Homo sapiens (Human), UniProt Q9NYK1); assay: TLR7 inhibition reporter assay (HEK-Blue, SEAP); settings: HEK-Blue cells overexpressing human TLR7, gardiquimod 7.5 μM stimulation
Method in brief: (§1)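 Cells are treated with compound over a 0.05 nM–50 μM final range for 30 min at room temperature before agonist addition: gardiquimod at 7.5 μM for TLR7, R848 at 15.9 μM for TLR8, ODN2006 at 5 nM for TLR9. SEAP is measured after 22 h at 37 °C.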

human TLR9 = human TLR9 (Homo sapiens (Human), UniProt Q9NR96); assay: TLR9 inhibition reporter assay (HEK-Blue, SEAP); settings: HEK-Blue cells overexpressing human TLR9, ODN2006 5 nM stimulation
Sequence of human TLR9 (Q9NR96 26-1032): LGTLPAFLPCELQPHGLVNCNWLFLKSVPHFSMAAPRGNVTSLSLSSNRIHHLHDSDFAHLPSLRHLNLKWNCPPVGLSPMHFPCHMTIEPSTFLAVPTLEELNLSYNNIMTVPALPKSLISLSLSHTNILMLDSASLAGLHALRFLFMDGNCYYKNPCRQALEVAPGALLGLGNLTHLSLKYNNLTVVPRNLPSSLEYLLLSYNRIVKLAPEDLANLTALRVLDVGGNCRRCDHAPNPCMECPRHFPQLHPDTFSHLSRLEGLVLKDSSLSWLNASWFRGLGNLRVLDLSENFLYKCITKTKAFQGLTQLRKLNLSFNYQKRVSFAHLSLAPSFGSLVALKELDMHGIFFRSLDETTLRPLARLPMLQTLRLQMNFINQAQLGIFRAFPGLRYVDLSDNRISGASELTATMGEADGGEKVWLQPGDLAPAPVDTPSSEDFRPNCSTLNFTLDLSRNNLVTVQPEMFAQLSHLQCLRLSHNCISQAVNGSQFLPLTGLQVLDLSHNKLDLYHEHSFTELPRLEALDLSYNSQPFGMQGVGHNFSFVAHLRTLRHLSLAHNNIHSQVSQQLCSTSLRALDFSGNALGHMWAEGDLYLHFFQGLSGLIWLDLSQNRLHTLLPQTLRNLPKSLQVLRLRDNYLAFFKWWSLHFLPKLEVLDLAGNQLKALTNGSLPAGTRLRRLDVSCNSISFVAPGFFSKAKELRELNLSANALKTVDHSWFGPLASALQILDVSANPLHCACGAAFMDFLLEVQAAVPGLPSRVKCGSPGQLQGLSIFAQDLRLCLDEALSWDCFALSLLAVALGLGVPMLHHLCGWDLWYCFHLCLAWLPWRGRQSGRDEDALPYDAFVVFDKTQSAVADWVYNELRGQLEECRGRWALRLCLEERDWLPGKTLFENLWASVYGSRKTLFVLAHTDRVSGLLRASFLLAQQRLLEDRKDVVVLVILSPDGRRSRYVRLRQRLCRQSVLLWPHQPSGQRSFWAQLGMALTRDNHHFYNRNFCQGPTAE
Method in brief: as §1

human TLR8 = human TLR8 (Homo sapiens (Human), UniProt Q9NR97); assay: TLR8 inhibition reporter assay (HEK-Blue, SEAP); settings: HEK-Blue cells overexpressing human TLR8, R848 15.9 μM stimulation
Sequence of human TLR8 (Q9NR97 27-1041): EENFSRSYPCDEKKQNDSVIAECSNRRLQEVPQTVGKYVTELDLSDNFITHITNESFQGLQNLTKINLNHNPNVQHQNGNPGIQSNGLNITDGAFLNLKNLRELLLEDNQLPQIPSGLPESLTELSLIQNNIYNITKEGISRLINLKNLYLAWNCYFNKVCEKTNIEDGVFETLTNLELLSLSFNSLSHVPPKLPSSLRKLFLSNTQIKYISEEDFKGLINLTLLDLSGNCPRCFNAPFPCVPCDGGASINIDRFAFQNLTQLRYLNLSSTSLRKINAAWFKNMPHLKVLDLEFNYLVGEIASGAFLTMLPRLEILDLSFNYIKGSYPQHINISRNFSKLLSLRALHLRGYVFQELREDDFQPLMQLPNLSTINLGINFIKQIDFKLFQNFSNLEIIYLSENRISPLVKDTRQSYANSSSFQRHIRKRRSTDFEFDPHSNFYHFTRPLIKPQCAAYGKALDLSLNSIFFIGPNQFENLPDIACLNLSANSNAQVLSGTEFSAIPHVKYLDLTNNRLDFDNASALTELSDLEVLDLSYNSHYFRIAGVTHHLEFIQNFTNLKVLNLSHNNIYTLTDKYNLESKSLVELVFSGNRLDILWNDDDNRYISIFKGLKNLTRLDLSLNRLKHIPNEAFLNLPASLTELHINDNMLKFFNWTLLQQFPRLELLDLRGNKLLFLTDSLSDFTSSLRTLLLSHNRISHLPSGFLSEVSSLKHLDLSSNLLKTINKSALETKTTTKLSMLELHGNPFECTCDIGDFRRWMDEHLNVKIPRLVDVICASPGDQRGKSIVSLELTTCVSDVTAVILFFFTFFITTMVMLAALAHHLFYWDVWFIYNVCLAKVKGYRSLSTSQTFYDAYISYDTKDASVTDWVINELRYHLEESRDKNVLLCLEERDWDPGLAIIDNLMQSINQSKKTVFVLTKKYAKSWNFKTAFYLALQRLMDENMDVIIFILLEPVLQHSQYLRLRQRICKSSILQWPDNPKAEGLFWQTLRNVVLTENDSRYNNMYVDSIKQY
Method in brief: as §1

Sequence of human TLR7 (Q9NYK1 27-1049): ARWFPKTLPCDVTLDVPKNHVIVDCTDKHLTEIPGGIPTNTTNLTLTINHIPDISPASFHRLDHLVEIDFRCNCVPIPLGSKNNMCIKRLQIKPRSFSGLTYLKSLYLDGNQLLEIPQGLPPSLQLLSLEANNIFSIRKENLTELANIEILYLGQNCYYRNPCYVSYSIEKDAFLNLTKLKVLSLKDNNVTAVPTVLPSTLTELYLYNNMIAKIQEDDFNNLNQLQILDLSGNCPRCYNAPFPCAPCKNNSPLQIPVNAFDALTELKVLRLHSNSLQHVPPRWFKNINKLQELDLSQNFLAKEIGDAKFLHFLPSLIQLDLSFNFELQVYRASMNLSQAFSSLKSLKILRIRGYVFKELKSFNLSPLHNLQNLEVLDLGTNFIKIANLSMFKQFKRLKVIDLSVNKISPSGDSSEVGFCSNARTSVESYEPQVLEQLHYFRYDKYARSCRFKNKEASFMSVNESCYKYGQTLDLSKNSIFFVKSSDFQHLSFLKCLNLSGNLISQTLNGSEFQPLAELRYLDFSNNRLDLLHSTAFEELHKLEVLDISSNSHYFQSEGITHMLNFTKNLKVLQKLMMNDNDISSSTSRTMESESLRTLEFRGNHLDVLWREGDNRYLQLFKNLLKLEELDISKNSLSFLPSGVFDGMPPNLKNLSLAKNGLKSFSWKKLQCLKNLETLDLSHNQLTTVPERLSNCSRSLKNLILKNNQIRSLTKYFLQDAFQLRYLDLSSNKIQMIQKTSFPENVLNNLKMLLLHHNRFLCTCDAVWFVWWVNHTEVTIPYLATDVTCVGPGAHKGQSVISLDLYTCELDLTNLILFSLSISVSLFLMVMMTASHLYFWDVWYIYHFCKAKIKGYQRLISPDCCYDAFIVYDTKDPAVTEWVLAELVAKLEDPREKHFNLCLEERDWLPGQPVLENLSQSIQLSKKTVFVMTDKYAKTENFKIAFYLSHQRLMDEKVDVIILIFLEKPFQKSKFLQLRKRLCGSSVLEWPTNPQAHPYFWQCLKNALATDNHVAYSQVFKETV

With `Cc1cc(-c2[nH]c3ccc(-c4nc(C(=O)NCCN5CCOCC5)co4)cc3c2C(C)C)cc(C)n1` [Example 281, 2-(2-(2,6-dimethylpyridin-4-yl)-3-isopropyl-1H-indol-5-yl)-N-(2-morpholinoethyl)oxazole-4-carboxamide] the IC50 (human TLR7) was 34 nM, the IC50 (human TLR9) was 11200 nM and the IC50 (human TLR8) was 8.7 nM.

In the case of `Cc1cc(-c2[nH]c3ccc(-c4nc(C(=O)N[C@H]5CC[C@H](N)CC5)co4)cc3c2C(C)C)cc(C)n1` [Example 282], the IC50 (human TLR7) is reported as 72 nM, the IC50 (human TLR9) is reported as 2380 nM and the IC50 (human TLR8) is reported as 16 nM.

With `CCOC(=O)N1CCC(NC(=O)c2coc(-c3ccc4[nH]c(-c5cc(C)nc(C)c5)c(C(C)C)c4c3)n2)CC1` [Example 283, ethyl 4-(2-(2-(2,6-dimethylpyridin-4-yl)-3-isopropyl-1H-indol-5-yl)oxazole-4-carboxamido)piperidine-1-carboxylate] the IC50 (human TLR7) was 147 nM, the IC50 (human TLR9) was 2360 nM and the IC50 (human TLR8) was 9.3 nM.

`Cc1cc(-c2[nH]c3ccc(-c4nc(C(=O)NCCCN5CCCC5)co4)cc3c2C(C)C)cc(C)n1` [Example 284, 2-(2-(2,6-dimethylpyridin-4-yl)-3-isopropyl-1H-indol-5-yl)-N-(3-(pyrrolidin-1-yl)propyl)oxazole-4-carboxamide] gave an IC50 (human TLR7) of 12 nM, an IC50 (human TLR9) of 563 nM and an IC50 (human TLR8) of 9.6 nM.

Work on `Cc1cc(-c2[nH]c3ccc(-c4nc(C(=O)NCCCCN5CCCC5)co4)cc3c2C(C)C)cc(C)n1` [Example 285, 2-(2-(2,6-dimethylpyridin-4-yl)-3-isopropyl-1H-indol-5-yl)-N-(4-(pyrrolidin-1-yl)butyl)oxazole-4-carboxamide] yielded an IC50 (human TLR7) of 8.6 nM, an IC50 (human TLR9) of 466 nM and an IC50 (human TLR8) of 5.6 nM.

For `Cc1cc(-c2[nH]c3ccc(-c4nc(C(=O)NCCCN5CCN(C)CC5)co4)cc3c2C(C)C)cc(C)n1` [Example 286, 2-(2-(2,6-dimethylpyridin-4-yl)-3-isopropyl-1H-indol-5-yl)-N-(3-(4-methylpiperazin-1-yl)propyl)oxazole-4-carboxamide], the IC50 (human TLR7) was 12 nM, the IC50 (human TLR9) was 202 nM and the IC50 (human TLR8) was 1.9 nM.

Work on `Cc1cc(-c2[nH]c3ccc(-c4nc(C(=O)NCC5CCCCN5)co4)cc3c2C(C)C)cc(C)n1` (stereo not drawn) [Example 287, 2-(2-(2,6-dimethylpyridin-4-yl)-3-isopropyl-1H-indol-5-yl)-N-(piperidin-2-ylmethyl)oxazole-4-carboxamide] yielded an IC50 (human TLR7) of 17 nM, an IC50 (human TLR9) of 399 nM and an IC50 (human TLR8) of 6.6 nM.

Compound `Cc1cc(-c2[nH]c3ccc(-c4nc(C(=O)NCC5CNC5)co4)cc3c2C(C)C)cc(C)n1` [Example 288, N-(azetidin-3-ylmethyl)-2-(2-(2,6-dimethylpyridin-4-yl)-3-isopropyl-1H-indol-5-yl)oxazole-4-carboxamide] has an IC50 (human TLR7) of 69 nM, an IC50 (human TLR9) of 730 nM and an IC50 (human TLR8) of 80 nM.

`Cc1cc(-c2[nH]c3ccc(-c4nc(C(=O)NCC(C)(C)N5CCOCC5)co4)cc3c2C(C)C)cc(C)n1` [Example 289, 2-(2-(2,6-dimethylpyridin-4-yl)-3-isopropyl-1H-indol-5-yl)-N-(2-methyl-2-morpholinopropyl)oxazole-4-carboxamide] showed an IC50 (human TLR7) of 100 nM, an IC50 (human TLR9) of 2090 nM and an IC50 (human TLR8) of 10 nM.

Compound `Cc1cc(-c2[nH]c3ccc(-c4nc(C(=O)NC5CCCNC5)co4)cc3c2C(C)C)cc(C)n1` (stereo not drawn) [Example 290, 2-(2-(2,6-dimethylpyridin-4-yl)-3-isopropyl-1H-indol-5-yl)-N-(piperidin-3-yl)oxazole-4-carboxamide] has an IC50 (human TLR7) of 38 nM, an IC50 (human TLR9) of 3390 nM and an IC50 (human TLR8) of 17 nM.

With `Cc1cc(-c2[nH]c3ccc(-c4nc(C(=O)NCCC5CCCN5)co4)cc3c2C(C)C)cc(C)n1` (stereo not drawn) [Example 291, 2-(2-(2,6-dimethylpyridin-4-yl)-3-isopropyl-1H-indol-5-yl)-N-(2-(pyrrolidin-2-yl)ethyl)oxazole-4-carboxamide] the IC50 (human TLR7) was 67 nM, the IC50 (human TLR9) was 494 nM and the IC50 (human TLR8) was 23 nM.

For `Cc1cc(-c2[nH]c3ccc(-c4nnc(C5CCCN(C(C)C)C5)o4)cc3c2C(C)C)ccn1` (stereo not drawn) [Example 292, 2-(3-isopropyl-2-(2-methylpyridin-4-yl)-1H-indol-5-yl)-5-(1-isopropylpiperidin-3-yl)-1,3,4-oxadiazole], the IC50 (human TLR7) was 44 nM, the IC50 (human TLR9) was 551 nM and the IC50 (human TLR8) was 2.5 nM.
